# Measured values taken from publication PMC6836573, “Mitochondria-targeting fluorescent molecules for high efficiency cancer growth inhibition and imaging” (Chemical Science, 2019).
# “Also recorded” adds a separate entry of the source.
# Experiments:
# [1] = Cytotoxicity assay (direct cell counting), NIH-3T3; type: cell-based; conditions: mouse; NIH-3T3 normal cells; 3 days incubation, viable cells counted
# Protocol: (§1) Cell culture, imaging, and cytotoxicity assay
# (§2) RPMI-1640 medium. NIH/3T3 was cultured in DMEM medium. A549 was cultured in F-12K medium. T24 were cultured in McCoy's 5A medium. All culture mediums were supplemented with 10% fetal bovine serum. The cells were incubated at 37 °C in an atmosphere containing 5% CO 2. […]
# (§3) Cytotoxicity assay. All test cell lines were incubated in 96-well plates overnight at a density of 3000 cells/well. The culture medium was replaced with 200 μL of culture medium, into which the testing compound was dispersed at various concentrations (1.95 - 500 μM). After incubating for 3 days, the viable cell numbers were checked and directly counted under microscopy (10X). A minimum of 1mm×1mm area was counted from each of at least three widely separated regions of cell culture. The cell proliferation rate was calculated by the following formula: cell proliferation rate (%) = (average cell number of sample wells / average cell number of control wells) ×100%.
# (§4) The intact culture medium was evaluated as a control. […]
# [2] = tested on: NSCLC H838 cell; assay: Cytotoxicity assay (direct cell counting), H838; type: cell-based; conditions: H838 cells, 3 days incubation, viable cells counted
# Protocol: as §1, §2, §3, §4
# All animal experiments were performed in compliance with the Guidelines for the Care and Use of Research Animals as established by the Stanford University Animal Studies Committee. Female athymic nude mice (nu/nu) from 4−6 weeks old were obtained from Charles River Laboratories (Boston, MA, USA) and kept under sterile conditions. 5 × 106 human lung adenocarcinoma
# [3] = tested on: bladder cancer T24 cell; assay: Cytotoxicity assay (direct cell counting), T24; type: cell-based; conditions: for IC50: T24 cells, 3 days incubation, viable cells counted
# Protocol: as §1, §2, §3, §4
# [4] = Photostability under continuous excitation; type: physicochemical; conditions: water, 10 μM, continuously excited for 50 min
# Protocol: bandpass filter (MF559-34, Thorlabs, Newton, New Jersey, USA) was used to excite Mitotracker
# Red. All the dyes were dissolved in water at a 10 µM concentration in 700 µL micro quartz cuvettes (10 mm, Sigma-Aldrich, St. Louis, MO, USA). They were continuously excited for 50 mins.
# During this period, the fluorescence intensity was measured every 5 mins at 525 nm (F16s, Rhodamine 6G, Mitotracker Green) or 600 nm (Mitotracker Red). Relative fluorescence intensity change was monitored over time. […]
# [5] = Relative fluorescence quantum yield; type: physicochemical; conditions: EtOH, relative to rhodamine 6G, excited at 425 nm
# Protocol: Quantum yield. The fluorescence quantum yields of F16s were determined according to the […]
# Where Φ is the quantum yield, F is the integrated area under the corrected emission spectrum, and A is the absorbance at the excitation wavelength; the subscripts x and s refer to F16s and the standard, respectively. Rhodamine 6G (ΦF = 95%) in ethanol was used as the standard. All F16s and Rhodamine 6G were dissolved in ethanol in 5 different concentrations with the absorbance lower than 0.1 at 425nm. The corresponding 5 different fluorescences of F16s and Rhodamine 6G were excited at 425 nm and the emission spectra from 450 nm to 650 nm were obtained for the following integrated area measurement. All data were analyzed using Origin Pro 9.0 software (OriginLab, Northampton, Massachusetts, USA) to get the F16s final quantum yield. […]
# [6] = Absorption and emission spectra in water; type: physicochemical; conditions: 31 μM
# [7] = design: method as in PMID 19072739, PMID 10656430, PMID 12154051; conditions: study halted at Phase II; cited from earlier work
# [8] = design: method as in earlier work; conditions: in ethanol, used as the standard; ref 2 of the supplement; cited from earlier work
Quantum Yield [5] [%],Structure (SMILES),IC50 at 3 days [1] [µM],"IC50 ([2]; Homo sapiens, NCI-H838, 72 h) [µM]","IC50 ([3]; Homo sapiens, T-24, 72 h) [µM]",also measured
13.6,Cn1cc(/C=C/c2cc[n+](C)cc2)c2cc(F)ccc21 [1-MeFF16],104,19.1,21.7,photostability ([4]; listed as 1): bleached quite easily; also recorded: dramatically decreased photostability; Quantum Yield ([5]; listed as 1): around 12%
8.6,C[n+]1ccc(/C=C/c2c(Cl)[nH]c3ccccc23)cc1 [2-ClF16],13.8,25.7,54.7,photostability ([4]; listed as 8): bleached quite easily; also recorded: poor photostability; Quantum Yield ([5]; listed as 8): under 10%
18.1,Cc1ccc2[nH]c(C)c(/C=C/c3cc[n+](C)cc3)c2c1 [2-Me-5-MeF16],161,17.3,68.8,absorption peak [6]: about 450 nm; photostability ([4]; listed as 9): bleached quite easily; also recorded: poor photostability; Quantum Yield ([5]; listed as 9): around 20%
5.8,C[n+]1ccc(/C=C/c2c(-c3ccccc3)[nH]c3ccccc23)cc1 [2-PhF16],0.326,3.74,4.02,absorption peak [6]: about 450 nm; Quantum Yield ([5]; listed as 5): under 10%
49.1,C[n+]1ccc(/C=C/c2c[nH]c3ccc(Br)cc23)cc1 [5-BrF16],11.6,1.2,1.84,–
9.7,C[n+]1ccc(/C=C/c2c[nH]c3ccc(C#N)cc23)cc1 [5-CNF16],–,20,316,Quantum Yield ([5]; listed as 6): under 10%
4.5,C[n+]1ccc(/C=C/c2c[nH]c3c(F)cc(I)cc23)cc1 [5-I-7-FF16],14.2,1.29,3.83,Quantum Yield ([5]; listed as 10): under 10%
–,"C[n+]1ccc(/C=C/c2c[nH]c3ccccc23)cc1 [F16, reference compound]",–,–,–,IC50 [2]: 46.6 µM; IC50 [3]: 18.8 µM
18.5,C[n+]1ccc(/C=C/c2c[nH]c3ccc(F)cc23)cc1 [FF16],75.1,3.63,6.26,selectivity indices ([3]; 3T3 versus T24 and H838): > 10; Quantum Yield ([5]; listed as 7): around 20%
–,CCn1c(=O)/c(=C2\Sc3ccccc3N2C)s/c1=C\c1cccc[n+]1CC.[Cl-] [MKT-077],–,–,–,anti-tumor effect in clinical trial [7]: limited anti-tumor effect; nephrotoxicity in clinical trial [7]: mild nephrotoxicity
1.24,C[n+]1ccc(/C=C/c2c[nH]c3ccc([N+](=O)[O-])cc23)cc1 [NO2F16],86,4.7,73.8,Quantum Yield ([5]; listed as 11): under 10%
12.2,C[n+]1ccc(/C=C/c2c[nH]c3c2ccc2ccccc23)cc1 [PhF16],0.28,1.5,1.02,Quantum Yield ([5]; listed as 2): around 12%
–,CC/N=c1\cc2oc3cc(NCC)c(C)cc3c(-c3ccccc3C(=O)OCC)c-2cc1C [rhodamine 6G],–,–,–,Quantum Yield of the standard [8]: 95%
